Experimental data published in patent US20260265265A1, “NOVEL BENZIMIDAZOLONE DERIVATIVE COMPOUND AS AUTOTAXIN INHIBITOR” (LG CHEM, LTD., priority 2023, published 2026).

Target: T1, Recombinant Human ENPP-2/Autotaxin (Homo sapiens, UniProt Q13822)
T1 construct: purchased R&D systems 5255-EN
Experiment: LysoPLD activity measurement (autotaxin enzyme inhibition, choline release, TOOS reagent)
Assay type: biochemical
Conditions: LysoPLD inhibitory activity; substrate 14:0 LysoPC; absorbance at 555 nm
Outline: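 Enzyme and compound were preincubated for 30 min before adding 14:0 LysoPC substrate, diluted to 300 μM, for 90 minutes at 37° C. The choline product was quantified colorimetrically with TOOS reagent. Wells without compound held 1% DMSO.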

SMILES | IC50 [nM]
CN(C)c1ccc(-n2c(=O)n(C(C)(C)c3cccc(C(=O)O)c3)c3ccc(Cl)cc32)cc1 [Example 153, 3-(2-(5-chloro-3-(4-(dimethylamino)phenyl)-2-oxo-2,3-dihydro-1H-benzo[d]imidazol-1-yl)propane-2-yl)benzoic acid] | 10 to 100
O=C(O)c1cccc(Cn2c(=O)n(-c3ccc(N4CCN(C(=O)C5CCC(F)(F)CC5)CC4)cc3)c3cc(Cl)ccc32)c1F [Example 143, 3-((5-chloro-3-(4-(4-(4,4-difluorocyclohexane-1-carbonyl)piperazin-1-yl)phenyl)-2-oxo-2,3-dihydro-1H-benzo[d]imidazol-1-yl)methyl)-2-fluorobenzoic acid] | 10 to 100
O=C(O)c1cccc(Cn2c(=O)n(-c3ccc(C4CCN(C(=O)C5CC5)CC4)cc3)c3cc(Cl)ccc32)c1 [Example 100, 3-((5-chloro-3-(4-(1-(cyclopropanecarbonyl)piperidin-4-yl)phenyl)-2-oxo-2,3-dihydro-1H-benzo[d]imidazol-1-yl)methyl)benzoic acid] | 10 to 100
CC(C)C(=O)Nc1ccc(-n2c(=O)n(Cc3cccc(C(=O)O)c3)c3ccc(Cl)cc32)cc1 [Example 11, 3-((5-chloro-3-(4-isobutyramidophenyl)-2-oxo-2,3-dihydro-1H-benzo[d]imidazol-1-yl)methyl)benzoic acid] | 100 to 1000
O=C(O)c1cccc(Cn2c(=O)n(-c3ccc(OCC4CCC4)c(F)c3)c3cc(Cl)ccc32)c1 [Example 30, 3-((5-chloro-3-(4-(cyclobutylmethoxy)-3-fluorophenyl)-2-oxo-2,3-dihydro-1H-benzo[d]imidazol-1-yl)methyl)benzoic acid] | 100 to 1000
CS(=O)(=O)Nc1ccc(-n2c(=O)n(Cc3cccc(C(=O)O)c3)c3ccc(Cl)cc32)cc1 [Example 19, 3-((5-chloro-3-(4-(methylsulfonamido)phenyl)-2-oxo-2,3-dihydro-1H-benzo[d]imidazol-1-yl)methyl)benzoic acid] | 10 to 100
O=C(O)c1cc(F)cc(C2(n3c(=O)n(-c4ccc(C(=O)N5CCCC5)cc4)c4cc(Cl)cnc43)CC2)c1 [Example 276, 3-(1-(6-chloro-2-oxo-1-(4-(pyrrolidine-1-carbonyl)phenyl)-1,2-dihydro-3H-imidazo[4,5-b]pyridin-3-yl)cyclopropyl)-5-fluorobenzoic acid] | < 10
CCCOc1ccc(-n2c(=O)n(Cc3cccc(C(=O)O)c3)c3ccc(Cl)cc32)cn1 [Example 76, 3-((5-chloro-2-oxo-3-(6-propoxypyridin-3-yl)-2,3-dihydro-1H-benzo[d]imidazol-1-yl)methyl)benzoic acid] | 100 to 1000
CCCCc1ccc(-n2c(=O)n(Cc3cccc(C(=O)O)c3)c3ccc(Cl)cc32)cc1 [Example 16, 3-((3-(4-butylphenyl)-5-chloro-2-oxo-2,3-dihydro-1H-benzo[d]imidazol-1-yl)methyl)benzoic acid] | 100 to 1000
O=C(O)c1cccc(Cn2c(=O)n(-c3ccccc3)c3cc(Cl)ccc32)c1 [Example 1, 3-((5-chloro-2-oxo-3-phenyl-2,3-dihydro-1H-benzo[d]imidazol-1-yl)methyl)benzoic acid] | 100 to 1000
CNC(=O)c1ccc(-n2c(=O)n(Cc3cccc(C(=O)O)c3)c3ccc(Cl)cc32)cc1 [Example 22, 3-((5-chloro-3-(4-(methylcarbamoyl)phenyl)-2-oxo-2,3-dihydro-1H-benzo[d]imidazol-1-yl)methyl)benzoic acid] | 10 to 100
O=C(O)c1cccc(Cn2c(=O)n(-c3ccc(N4CCOCC4)cc3)c3c(F)c(Cl)ccc32)n1 [Example 52, 6-((5-chloro-4-fluoro-3-(4-morpholinophenyl)-2-oxo-2,3-dihydro-1H-benzo[d]imidazol-1-yl)methyl)picolinic acid] | 10 to 100
CCC(=O)N1CCN(c2ccc(-n3c(=O)n(Cc4cccc(C(=O)O)c4F)c4ccc(Cl)cc43)cc2)CC1 [Example 141, 3-((5-chloro-2-oxo-3-(4-(4-propionylpiperazin-1-yl)phenyl)-2,3-dihydro-1H-benzo[d]imidazol-1-yl)methyl)-2-fluorobenzoic acid] | 10 to 100
O=C(O)c1cccc(Cn2c(=O)n(-c3ccc(C4CC4)cn3)c3cc(Cl)ccc32)c1 [Example 163, 3-((5-chloro-3-(5-cyclopropylpyridin-2-yl)-2-oxo-2,3-dihydro-1H-benzo[d]imidazol-1-yl)methyl)benzoic acid] | 100 to 1000
CN(C)c1ccc(-n2c(=O)n(Cc3cccc(C(=O)O)c3)c3ccc(Cl)cc32)nc1 [Example 164, 3-((5-chloro-3-(5-(dimethylamino)pyridin-2-yl)-2-oxo-2,3-dihydro-1H-benzo[d]imidazol-1-yl)methyl)benzoic acid] | 100 to 1000
CN(C)c1ccc(-n2c(=O)n(Cc3cccc(C(=O)O)c3F)c3ccc(Cl)cc32)cc1 [Example 39, 3-((5-chloro-3-(4-(dimethylamino)phenyl)-2-oxo-2,3-dihydro-1H-benzo[d]imidazol-1-yl)methyl)-2-fluorobenzoic acid] | 10 to 100
O=C(O)c1cccc(Cn2c(=O)n(-c3ccc(N4CCOCC4)cc3)c3cc(Cl)cnc32)c1 [Example 162, 3-((6-chloro-1-(4-morpholinophenyl)-2-oxo-1,2-dihydro-3H-imidazo[4,5-b]pyridin-3-yl)methyl)benzoic acid] | 100 to 1000
O=C(O)c1cccc(Cn2c(=O)n(-c3ccc(C4CCN(C(=O)C5CCC5)CC4)cc3)c3c(F)c(Cl)ccc32)c1F [Example 152, 3-((5-chloro-3-(4-(1-(cyclobutanecarbonyl)piperidin-4-yl)phenyl)-4-fluoro-2-oxo-2,3-dihydro-1H-benzo[d]imidazol-1-yl)methyl)-2-fluorobenzoic acid] | 10 to 100

Continued, values first:

IC50 [nM] | SMILES
< 10 | O=C(O)c1cccc(C2(n3c(=O)n(-c4ccc(C(=O)N5CCC(F)(F)CC5)cc4)c4cc(Cl)ccc43)CC2)c1F [Example 133, 3-(1-(5-chloro-3-(4-(4,4-difluoropiperidine-1-carbonyl)phenyl)-2-oxo-2,3-dihydro-1H-benzo[d]imidazol-1-yl)cyclopropyl)-2-fluorobenzoic acid]
< 10 | O=C(O)c1cccc(C2(n3c(=O)n(-c4ccc(C(=O)N5CC6(CCOCC6)C5)cc4)c4cc(Cl)ccc43)CC2)c1F [Example 107, 3-(1-(3-(4-(7-oxa-2-azaspiro[3.5]nonane-2-carbonyl)phenyl)-5-chloro-2-oxo-2,3-dihydro-1H-benzo[d]imidazol-1-yl)cyclopropyl)-2-fluorobenzoic acid]
< 10 | O=C(O)c1cccc(C2(n3c(=O)n(-c4ccc(-c5nnc(C6CCOCC6)o5)cc4)c4cc(Cl)ccc43)CC2)c1 [Example 267, 3-(1-(5-chloro-2-oxo-3-(4-(5-(tetrahydro-2H-pyran-4-yl)-1,3,4-oxadiazol-2-yl)phenyl)-2,3-dihydro-1H-benzo[d]imidazol-1-yl)cyclopropyl)benzoic acid]
< 10 | CN(C)C(=O)c1ccc(-n2c(=O)n(C3(c4cccc(C(=O)O)c4)CC3)c3ncc(Cl)cc32)cc1 [Example 223, 3-(1-(6-chloro-1-(4-(dimethylcarbamoyl)phenyl)-2-oxo-1,2-dihydro-3H-imidazo[4,5-b]pyridin-3-yl)cyclopropyl)benzoic acid]
< 10 | O=C(O)c1cccc(C2(n3c(=O)n(-c4ccc(C5=CCOCC5)cc4)c4cc(Cl)ccc43)CC2)c1F [Example 122, 3-(1-(5-chloro-3-(4-(3,6-dihydro-2H-pyran-4-yl)phenyl)-2-oxo-2,3-dihydro-1H-benzo[d]imidazol-1-yl)cyclopropyl)-2-fluorobenzoic acid]
< 10 | O=C(O)c1cccc(C2(n3c(=O)n(-c4ccc(C5CCOC5)cc4)c4cc(Cl)ccc43)CC2)c1 (stereo not drawn) [Example 248, 3-(1-(5-chloro-2-oxo-3-(4-(tetrahydrofuran-3-yl)phenyl)-2,3-dihydro-1H-benzo[d]imidazol-1-yl)cyclopropyl)benzoic acid]
10 to 100 | O=C(O)c1cc(F)cc(C2(n3c(=O)n(-c4ccc(C5CCOCC5)cc4)c4cc(Cl)cnc43)CC2)c1 [Example 273, 3-(1-(6-chloro-2-oxo-1-(4-(tetrahydro-2H-pyran-4-yl)phenyl)-1,2-dihydro-3H-imidazo[4,5-b]pyridin-3-yl)cyclopropyl)-5-fluorobenzoic acid]
10 to 100 | O=C(O)c1cccc(Cn2c(=O)n(-c3ccc(C4CCOCC4)cc3)c3cc(Cl)ccc32)c1F [Example 108, 3-((5-chloro-2-oxo-3-(4-(tetrahydro-2H-pyran-4-yl)phenyl)-2,3-dihydro-1H-benzo[d]imidazol-1-yl)methyl)-2-fluorobenzoic acid]
10 to 100 | O=C(O)c1cc(F)cc(C2(n3c(=O)n(-c4ccc(C5CCOCC5)cc4)c4cc(Cl)ccc43)CC2)c1 [Example 190, 3-(1-(5-chloro-2-oxo-3-(4-(tetrahydro-2H-pyran-4-yl)phenyl)-2,3-dihydro-1H-benzo[d]imidazol-1-yl)cyclopropyl)-5-fluorobenzoic]
< 10 | CCCn1cc(-c2ccc(-n3c(=O)n(C4(c5cccc(C(=O)O)c5)CC4)c4ccc(Cl)cc43)cc2)cn1 [Example 269, 3-(1-(5-chloro-2-oxo-3-(4-(1-propyl-1H-pyrazol-4-yl)phenyl)-2,3-dihydro-1H-benzo[d]imidazol-1-yl)cyclopropyl)benzoic acid]
10 to 100 | O=C(O)c1cccc(C2(n3c(=O)n(-c4ccc(N5CCOCC5)cc4)c4cc(OC(F)(F)F)ccc43)CC2)c1 [Example 209, 3-(1-(3-(4-morpholinophenyl)-2-oxo-5-(trifluoromethoxy)-2,3-dihydro-1H-benzo[d]imidazol-1-yl)cyclopropyl)benzoic acid]
10 to 100 | CN(C)c1ccc(-n2c(=O)n(C3(c4cccc(C(=O)O)c4)CC3)c3ccc(OC(F)(F)F)cc32)cc1 [Example 208, 3-(1-(3-(4-(dimethylamino)phenyl)-2-oxo-5-(trifluoromethoxy)-2,3-dihydro-1H-benzo[d]imidazol-1-yl)cyclopropyl)benzoic acid]
